Measured values taken from PubChem BioAssay AID1208 (EPA DSSTox, 2008).
Calls of active or inactive are those of the source.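 How the source made its calls: active means at least one rat sex group has a carcinogenic potency value and tumor site recorded; inconclusive means only rat studies were judged inadequate by the national testing program; inactive means no potency or tumor site, with negative rat experiments.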

Tested on: rat chronic carcinogenicity bioassay, TD50
Assay: DSSTox (CPDBAS) Carcinogenic Potency Database Summary Rat Bioassay Results
Conditions: for outcome: TD50_Rat_Note: no positive results; for Potency: stronger effect = lower value
Procedure, shortened: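 The activity score maps log10(1/TD50_Rat_mmol) linearly onto 1–100; actives without a computed TD50, such as mixtures, receive 50. Source data are chronic rat carcinogenicity tests, using the most positive experiment for each sex.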

[1] = TargetSites_Rat_Female: no positive results
[2] = TD50_Rat_Note: TD50 is harmonic mean of more than one positive test, TargetSites_Rat_Female: no positive results
[3] = TD50_Rat_Note: TD50 is harmonic mean of more than one positive test

## C[C@@H]1O[C@@H](OC[C@H]2O[C@@H](Oc3c(-c4ccc(O)c(O)c4)oc4cc(O)cc(O)c4c3=O)[C@H](O)[C@@H](O)[C@@H]2O)[C@H](O)[C@H](O)[C@H]1O
[1]
  outcome: inactive; no positive results

## CC(O)COC(C)(C)C (stereo unspecified)
[1]
  outcome: inactive; no positive results

## C[C@]12CC[C@H]3C(=CCc4cc(OS(=O)(=O)O)ccc43)[C@@H]1CCC2=O
[1]
  outcome: inactive; no positive results

## O=c1c(O)c(-c2ccc(O)c(O)c2)oc2cc(O)cc(O)c12
TD50_Rat_Note: TD50 is harmonic mean of more than one positive test, greater than ten-fold variation among TD50 values for positive res, TargetSites_Rat_Female: small intestine, urinary bladder
  Potency: 10.1 mg/kg/day
[1]
  outcome: inactive; no positive results

## C[C@]12C=CC(=O)C=C1CC[C@@H]1[C@@H]2[C@@H](O)C[C@@]2(C)[C@H]1CC[C@]2(O)C(=O)COC(=O)CCCc1ccc(N(CCCl)CCCl)cc1
TargetSites_Rat_Female: ear Zymbals gland
  Potency: 19.2 mg/kg/day

## C1CC2OC2CC1C1CO1 (stereo unspecified)
[1]
  outcome: inactive

## NC(N)=S
[2]
  Potency: 98.5 mg/kg/day

## CC(Cl)CCl (stereo unspecified)
[1]
  outcome: inactive; no positive results

## O=C(O)C(Cl)Cl
[3]
  Potency: 161 mg/kg/day

## CCCCCCCCCc1ccc(OCCOCCO)cc1
[1]
  outcome: inactive

## Cn1cc(C(=O)[C@@H]2CCc3nc[nH]c3C2)c2ccccc21
[1]
  outcome: inactive; no positive results

## O=C(Nc1nc(-c2ccc([N+](=O)[O-])o2)cs1)C(F)(F)F
TargetSites_Rat_Female: mammary gland
  Potency: 6.79 mg/kg/day

## Cc1c(C)c2c(c(C)c1O)CCC(C)(CCCC(C)CCCC(C)CCCC(C)C)O2 (stereo unspecified)
[1]
  outcome: inactive; no positive results

## CC(C)(c1ccc(O)cc1)c1ccc(O)cc1
[1]
  outcome: inactive; no positive results

## CNC(=O)Oc1cccc2ccccc12
TargetSites_Rat_BothSexes: all tumor bearing animals
  Potency: 14.1 mg/kg/day

## CCCC[N+](=O)[O-]
  outcome: inactive; no positive results

## C=CC(O)c1ccc2c(c1)OCO2 (stereo unspecified)
[3]
  Potency: 18.4 mg/kg/day

## CO[C@@]12[C@H](COC(N)=O)C3=C(C(=O)C(C)=C(N)C3=O)N1C[C@@H]1N[C@@H]12
TD50_Rat_Note: positive test results only by intraperitoneal or intravenous injection, TD50 is harmonic mean of more than one positive, TargetSites_Rat_Female: peritoneal cavity
  Potency: 0.00102 mg/kg/day

## Cc1cccc(N=Nc2ccc(N(C)C)cc2)c1
[3]
  Potency: 3.28 mg/kg/day

## CC(=O)Nc1ccc(C(=O)CCl)cc1
[1]
  outcome: inactive; no positive results

## c1ccncc1
[1]
  Potency: 67.3 mg/kg/day

## CCCC[C@H](C)[C@@H](OC(=O)C[C@H](CC(=O)O)C(=O)O)[C@@H](C[C@H](C)C[C@@H](O)CCCC[C@@H](O)C[C@H](O)[C@H](C)N)OC(=O)C[C@H](CC(=O)O)C(=O)O
[2]
  Potency: 1.5 mg/kg/day

## ClC1=C(Cl)[C@@]2(Cl)[C@@H]3[C@@H](Cl)[C@H](Cl)C[C@@H]3C1(Cl)C2(Cl)Cl
[1]
  outcome: inactive; no positive results

## Nc1nnc(-c2ccc([N+](=O)[O-])o2)o1
TargetSites_Rat_Female: kidney, lung, mammary gland, stomach
  Potency: 3.67 mg/kg/day

## O=C1CCN([C@@H]2O[C@H](CO)[C@@H](O)[C@H]2O)C(=O)N1
  outcome: inactive; no positive results

## O=P(OCCCl)(OCCCl)OCCCl
TD50_Rat_Note: TD50 is harmonic mean of more than one positive test, TargetSites_Rat_Female: kidney
  Potency: 86.7 mg/kg/day

## F
[1]
  outcome: inactive; no positive results

## CN(CCCC(O)c1cccnc1)N=O (stereo unspecified)
  Potency: 0.103 mg/kg/day

## C=CCl
TD50_Rat_Note: TD50 is harmonic mean of more than one positive test, greater than ten-fold variation among TD50 values for positive res, TargetSites_Rat_Female: ear Zymbals gland, kidney, liver, mammary gland, nasal cavity, nervous system, vascular system
  Potency: 6.11 mg/kg/day

## O=[As]O
TargetSites_Rat_BothSexes: no positive results
  outcome: inactive

## CCNC(=O)N(CCN(C)C)N=O
TargetSites_Rat_Female: mammary gland, uterus
  Potency: 0.704 mg/kg/day

## NC(=O)N(CCF)N=O
  Potency: 0.125 mg/kg/day

## CC(=O)Nc1ccc(S(=O)(=O)O)c2cc(S(=O)(=O)O)c(N=Nc3ccc(N=Nc4ccc(S(=O)(=O)O)cc4)c4ccc(S(=O)(=O)O)cc34)c(O)c12
[1]
  outcome: inactive; no positive results

## O=c1[nH]c(=O)n(C2CCCO2)cc1F (stereo unspecified)
[1]
  outcome: inactive; no positive results

## COc1cc(OC)c2c3c(c(=O)oc2c1)C(=O)CC3
  outcome: inactive; no positive results

## OC[C@@H](O)[C@@H](O)[C@H](O)[C@H](O)CO
[1]
  outcome: inactive; no positive results

## O=c1c(O)c(-c2ccc(O)cc2)oc2cc(O)cc(O)c12
[1]
  outcome: inactive; no positive results

## N#Cc1ccc(C2CCCc3cncn32)cc1 (stereo unspecified)
[1]
  outcome: inactive; no positive results

## O=[N+]([O-])OCC(CO[N+](=O)[O-])O[N+](=O)[O-]
TD50_Rat_Note: TD50 is harmonic mean of more than one positive test, TargetSites_Rat_Female: liver
  Potency: 183 mg/kg/day

## Nc1ccc(S(=O)(=O)c2ccc(N)cc2)cc1
[1]
  Potency: 22.4 mg/kg/day

## ClC1C(Cl)C(Cl)C(Cl)C(Cl)C1Cl (stereo unspecified)
[1]
  outcome: inactive; no positive results
  Potency: 11.2 mg/kg/day

## C=C(C)CCl
TD50_Rat_Note: TD50 is harmonic mean of more than one positive test, TargetSites_Rat_Female: stomach
  Potency: 113 mg/kg/day

## O=C(O)CC[N+](=O)[O-]
[1]
  outcome: inactive; no positive results

## Cc1cccc(N)c1
  outcome: inactive; no positive results
